IC50 data for 25 molecules are collected here from patent publication US20240101570A1 (AMGEN INC., priority 2020, published 2024).

The subject of one assay is HCT116 WT cells. The assay is described as follows: HCT116 WT cell proliferation / viability (CellTiter-Glo, 6 days). The assay is classed as cell-based. Particulars: Homo sapiens, HCT-116, 144 h, HCT116 WT cells, 6 days, CellTiter-Glo; read-out: HCT-116 WT IC50. Put shortly:
(§1)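 CellTiter-Glo luminescence, 6-day exposure, RPMI 1640 + 10% FBS. Dosing: 1:3 series (8-9 pts, top 1 or 10 μM) or 1:2 series (22 pts, top 10 or 50 μM), DMSO control. IC50 = 50% of control via curve fit.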
Background: Cellular ATP, detected with luciferase, serves as a proxy for viable cell number.

The next assay concerns HCT116 MTAP null cells. As to the kind of experiment: HCT116 MTAP null cell proliferation / viability (CellTiter-Glo, 6 days). Format: cell-based. The following applies: HCT116-MTAP null, 144 h, HCT116 MTAP null cells, 6 days, CellTiter-Glo; read-out: HCT-116 MTAP null IC50. In a few lines: as §1

As a reminder, the IC50 is the concentration that gives 50% inhibition. `C[C@H](c1ccc(F)cn1)N(C)C(=O)c1cc2c(cc1Cl)nc(N)c1cnn(C)c12` [Example 593, 4-amino-7-chloro-N-((1R)-1-(5-fluoro-2-pyridinyl)ethyl)-N,1-dimethyl-1H-pyrazolo[4,3-c]quinoline-8-carboxamide]: the IC50 in the assay with HCT116 WT cells was determined as 0.908 µM; in the assay with HCT116 MTAP null cells, 12 nM.
The like results for `CCN(Cc1ccc(C(F)(F)F)cn1)C(=O)c1ccc2nc(N)c3c(c2c1)COC3(C)C` [Example 933, 4-amino-N-ethyl-3,3-dimethyl-N-((5-(trifluoromethyl)pyridin-2-yl)methyl)-1,3-dihydrofuro[3,4-c]quinoline-8-carboxamide] were, in that order, greater than 10 µM and 560 nM.
For `CN(Cc1ccc(C(F)(F)F)cn1)C(=O)c1cc2c3c(c(N)nc2cc1C(F)(F)F)COC3` [Example 572, 4-amino-N-methyl-7-(trifluoromethyl)-N-((5-(trifluoromethyl)-2-pyridinyl)methyl)-1,3-dihydrofuro[3,4-c]quinoline-8-carboxamide] the same measures were greater than 50 µM and 939 nM.
On to `C[C@H]1OCc2c1c(N)nc1ccc(C(=O)N(Cc3ccc(C(F)(F)F)cn3)C34CC(C3)C4)cc21` [Example 380, (3R)-4-amino-N-(bicyclo[1.1.1]pentan-1-yl)-3-methyl-N-((5-(trifluoromethyl)-2-pyridinyl)methyl)-1,3-dihydrofuro[3,4-c]quinoline-8-carboxamide], for which the values for the IC50 in the assay on HCT116 WT cells and in the assay on HCT116 MTAP null cells were 4.1 µM and 56 nM, respectively.
The like results for `N#Cc1ccc(CN(CC2CC2)C(=O)c2cc3c4c(c(N)nc3cn2)COC4)nc1` [Example 682, 4-amino-N-((5-cyano-2-pyridinyl)methyl)-N-(cyclopropylmethyl)-1,3-dihydrofuro[3,4-c][1,7]naphthyridine-8-carboxamide] were, in that order, 3.4 µM and 87 nM.
The like results for `COc1ccc(CN(C(=O)c2ccc3nc(N)c4c(c3c2)COC4)C(C)C)nc1Cl` [Example 462, 4-amino-N-((6-chloro-5-methoxy-2-pyridinyl)methyl)-N-(2-propanyl)-1,3-dihydrofuro[3,4-c]quinoline-8-carboxamide] were, in that order, 3.94 µM and 105 nM.
For `Nc1nc2cnc(C(=O)N(Cc3ccc(C(F)(F)F)nn3)CC(F)(F)F)cc2c2c1COC2` [Example 712, 4-amino-N-(2,2,2-trifluoroethyl)-N-((6-(trifluoromethyl)-3-pyridazinyl)methyl)-1,3-dihydrofuro[3,4-c][1,7]naphthyridine-8-carboxamide] the same measures were greater than 50 µM and 2000 nM.
On to `C[C@H](c1ncccn1)N(Cc1ccc(C2CC2)nn1)C(=O)c1ccc2nc(N)c3c(c2c1)CO[C@@H]3C` [Example 329, (3R)-4-amino-N-((6-cyclopropyl-3-pyridazinyl)methyl)-3-methyl-N-((1R)-1-(2-pyrimidinyl)ethyl)-1,3-dihydrofuro[3,4-c]quinoline-8-carboxamide], for which the 50% inhibitory concentration (IC50) turned out to be 0.16 µM in the assay with HCT116 WT cells and 22 nM with HCT116 MTAP null cells.
The like results for `CO[C@@H]1CCOC[C@H]1N(Cc1ccc(C(F)(F)F)cn1)C(=O)c1ccc2nc(N)c3c(c2c1)COC3` (racemic) [Example 460, 4-amino-N-((3R,4R)-4-methoxytetrahydro-2H-pyran-3-yl)-N-((5-(trifluoromethyl)-2-pyridinyl)methyl)-1,3-dihydrofuro[3,4-c]quinoline-8-carboxamide and 4-amino-N-((3S,4S)-4-methoxytetrahydro-2H-pyran-3-yl)-N-((5-(trifluoromethyl)-2-pyridinyl)methyl)-1,3-dihydrofuro[3,4-c]quinoline-8-carboxamide] were, in that order, 0.287 µM and 19 nM.
Consider `CC(C)N(C(=O)c1ccc2nc(N)c3c(c2c1)CO[C@@H]3C)[C@H](C)c1ccc(C(F)(F)F)cn1` (single isomer, unassigned) [Example 839], for which the concentration for half-maximal inhibition (IC50) with HCT116 WT cells came to 9.52 µM; in the assay on HCT116 MTAP null cells, 213 nM.
In the case of `CC(C)CN(Cc1ccc(C(F)(F)F)nn1)C(=O)c1cc2c3c(c(N)nc2cn1)COC3` [Example 670, 4-amino-N-(2-methylpropyl)-N-((6-(trifluoromethyl)-3-pyridazinyl)methyl)-1,3-dihydrofuro[3,4-c][1,7]naphthyridine-8-carboxamide], the results for the IC50 in the assay on HCT116 WT cells and in the assay with HCT116 MTAP null cells were 8.02 µM and 170 nM, respectively.
In the case of `CCN(C(=O)c1ccc2nc(N)c3c(c2c1)CO[C@@H]3C)[C@H](C)c1ccc(C(F)F)cn1` [Example 775, (3R)-4-amino-N-((1R)-1-(5-(difluoromethyl)-2-pyridinyl)ethyl)-N-ethyl-3-methyl-1,3-dihydrofuro[3,4-c]quinoline-8-carboxamide], the IC50 in the assay on HCT116 WT cells came to 2.68 µM; in the assay on HCT116 MTAP null cells, 33 nM.
The like results for `C[C@H](c1ncccn1)N(Cc1ccc(Cl)cn1)C(=O)c1cnc2nc(N)c3c(c2c1)CCC3` [Example 627, 6-amino-N-((5-chloro-2-pyridinyl)methyl)-N-((1R)-1-(2-pyrimidinyl)ethyl)-8,9-dihydro-7H-cyclopenta[c][1,8]naphthyridine-2-carboxamide] were, in that order, 0.583 µM and 45 nM.
With `C[C@H](c1ncccn1)N(Cc1ccc(C#N)cn1)C(=O)c1cc2c3c(c(N)nc2cn1)COC3` [Example 606, (R)-4-amino-N-((5-cyanopyridin-2-yl)methyl)-N-(1-(pyrimidin-2-yl)ethyl)-1,3-dihydrofuro[3,4-c][1,7]naphthyridine-8-carboxamide], the IC50 in the assay on HCT116 WT cells was determined as 3.7 µM; in the assay with HCT116 MTAP null cells, 263 nM.
The like results for `C[C@H](c1ccc(-c2ccc(S(F)(F)(F)(F)F)cc2)cc1)N(C)C(=O)c1ccc2nc(N)c3cnn(C)c3c2c1` [Example 533, 4-amino-N,1-dimethyl-N-((1R)-1-(4′-(pentafluoro-lambda~6~- sulfanyl)[biphenyl]-4-yl)ethyl)-1H-pyrazolo[4,3-c]quinoline-8-carboxamide] were, in that order, 3.19 µM and 459 nM.
The like results for `CN(Cc1ccc(S(F)(F)(F)(F)F)cc1)C(=O)c1cc2c(cc1F)nc(N)c1cnn(C)c12` [Example 575, 4-amino-7-fluoro-N,1-dimethyl-N-(4-(pentafluoro-lambda~6~- sulfanyl)benzyl)-1H-pyrazolo[4,3-c]quinoline-8-carboxamide] were, in that order, 0.354 µM and 12 nM.
For `CC(C)N(Cc1ccc(Cl)cn1)C(=O)c1ccc2nc(N)c3c(c2c1)CO[C@@H]3C` [Example 423, (3R)-4-amino-N-((5-chloro-2-pyridinyl)methyl)-3-methyl-N-(2-propanyl)-1,3-dihydrofuro[3,4-c]quinoline-8-carboxamide] the same measures were 3.98 µM and 64 nM.
As to `COc1nc(C(F)(F)F)ccc1CN(C)C(=O)c1cc2c(cc1F)nc(N)c1cnn(C)c12` [Example 806, 4-amino-7-fluoro-N-((2-methoxy-6-(trifluoromethyl)-3-pyridinyl)methyl)-N,1-dimethyl-1H-pyrazolo[4,3-c]quinoline-8-carboxamide], the IC50 is 3.16 µM in the assay with HCT116 WT cells and 56 nM with HCT116 MTAP null cells.
The like results for `CN(Cc1ccc(C#N)cn1)C(=O)c1ccc2nc(N)c3c(c2c1)COC3` [Example 324, 4-amino-N-((5-cyano-2-pyridinyl)methyl)-N-methyl-1,3-dihydrofuro[3,4-c]quinoline-8-carboxamide] were, in that order, 51.6 µM and 908 nM.
The like results for `CCN(Cc1ccc(C(F)(F)F)cn1)C(=O)c1ccc2nc(N)c3c(c2c1)COC3` [Example 362, 4-amino-N-ethyl-N-((5-(trifluoromethyl)-2-pyridinyl)methyl)-1,3-dihydrofuro[3,4-c]quinoline-8-carboxamide] were, in that order, 2.21 µM and 76 nM.
Take `CN(Cc1ccc(F)nc1F)C(=O)c1cc2c(cc1F)nc(N)c1cnn(C)c12` [Example 771, 4-amino-N-((2,6-difluoro-3-pyridinyl)methyl)-7-fluoro-N,1-dimethyl-1H-pyrazolo[4,3-c]quinoline-8-carboxamide]: the IC50 in the assay on HCT116 WT cells came out at 31.1 µM; with HCT116 MTAP null cells, 395 nM.
On to `COCC(C)N(Cc1ccc(C(F)(F)F)nn1)C(=O)c1cc2c3c(c(N)nc2cn1)COC3` (racemic) [Example 390, 4-amino-N-((2R)-1-methoxy-2-propanyl)-N-((6-(trifluoromethyl)-3-pyridazinyl)methyl)-1,3-dihydrofuro[3,4-c][1,7]naphthyridine-8-carboxamide and 4-amino-N-((2S)-1-methoxy-2-propanyl)-N-((6-(trifluoromethyl)-3-pyridazinyl)methyl)-1,3-dihydrofuro[3,4-c][1,7]naphthyridine-8-carboxamide], for which the IC50 in the assay with HCT116 WT cells was 9.9 µM; in the assay on HCT116 MTAP null cells it was 262 nM.
The like results for `CC1OCc2c1c(N)nc1ccc(C(=O)N(Cc3ccc(C(F)(F)F)cn3)C(C)C)cc21` (centres unmarked) [Example 931, 4-amino-N-isopropyl-3-methyl-N-((5-(trifluoromethyl)pyridin-2-yl)methyl)-1,3-dihydrofuro[3,4-c]quinoline-8-carboxamide] were, in that order, 9.6 µM and 72 nM.
Consider `C[C@H](c1ncccn1)N(Cc1ccc(C(F)(F)F)cn1)C(=O)c1cnc2nc(N)c3c(c2c1)COC3` [Example 614, 4-amino-N-((1R)-1-(2-pyrimidinyl)ethyl)-N-((5-(trifluoromethyl)-2-pyridinyl)methyl)-1,3-dihydrofuro[3,4-c][1,8]naphthyridine-8-carboxamide], for which the IC50 in the assay on HCT116 WT cells was found to be 0.255 µM; in the assay on HCT116 MTAP null cells it was 42 nM.
With `COc1cc(C(F)(F)F)cnc1[C@@H](C)N(C)C(=O)c1cc2c(cc1F)nc(N)c1cnn(C)c12` (single isomer, unassigned) [Example 867], the IC50 in the assay with HCT116 WT cells stood at 7.84 µM; in the assay with HCT116 MTAP null cells it was 157 nM.
